The source of these data is article PMC10741632, “Detection of Dibutyl Phthalate in Surface Water by Fluorescence Polarization Immunoassay” (Biosensors, 2023).

This assay relates to monoclonal antibody against DBP (MAb-DBP). Briefly: competitive fluorescence polarization immunoassay with DBP-AMF tracer ([…] MAb-DBP, […] tracer). Type of assay: binding, Mus musculus. (In general: Fluorescence polarisation rises when a labelled molecule tumbles more slowly, as on binding a larger partner.)

Converted amounts (≈) assume the structure as drawn.

The term IC50 denotes the point on the concentration scale where inhibition reaches its midpoint.

In turn, `CCCCOC(=O)c1ccccc1C(=O)OCCCC` [Dibutyl phthalate] gave an IC50 of 0.04 ± 0.002 µg/mL (≈ 0.144 µM).
